≈ marks a conversion by molar mass, not a printed value.
Legend:
P. acnes (ATCC 6919) = assay: Antimicrobial susceptibility, broth dilution; type: cell-based; details: Cutibacterium acnes, ATCC6919; lowest concentration required to kill
Protocol: (§1) The antibacterial effects of seven hops components against five different strains of bacteria involved in primary or secondary skin and soft tissue infections was evaluated, with broth dilution methods. […] Antimicrobial susceptibility testing was performed using a broth dilution method. Gentamicin or ampicillin was used as a control to verify the methodology. A stock solution (20 mg/ml) of the test substance (or vehicle control) was prepared in dimethyl sulfoxide. Serial dilution was done in microwell plates. Reinforced Clostridial Medium was used for P. acnes (ATCC 6919). Three hundreds […] of the test substance was added to the test tube containing P. acnes (10^5 CFU/ml) in 2.7 ml of cultures grown under anaerobic conditions. Mueller-Hinston Broth suitable for culturing S. epidermidis (ATCC 12228), K. rhizophila (formerly M. luteus) (ATCC 9341), and S. aureus (ATCC […]), and Brain Heart Infusion Broth suitable for culturing S. pyogenes (ATCC 14289) were used. A total of […] of the test substance was added to the test tube containing the other microorganisms (10^5 CFU/ml) in 0.9 ml of cultures grown under controlled conditions. […] Samples from those tubes that scored positive was plated onto an agar plate and incubated under controlled conditions.

[1] = system: S. epidermidis (ATCC 12228); assay: Antimicrobial susceptibility, broth dilution; type: cell-based; details: Staphylococcus epidermidis, ATCC12228; lowest concentration required to kill
Protocol: as §1

S. aureus (ATCC 6538P) = assay: Antimicrobial susceptibility, broth dilution; type: cell-based; details: Staphylococcus aureus, ATCC6538P; lowest concentration required to kill
Protocol: as §1

S. pyogenes (ATCC 14289) = assay: Antimicrobial susceptibility, broth dilution; type: cell-based; details: Streptococcus pyogenes, ATCC14289; lowest concentration required to kill
Protocol: as §1

[2] = system: K. rhizophila (formerly M. luteus) (ATCC 9341); assay: Antimicrobial susceptibility, broth dilution; type: cell-based; details: Kocuria rhizophila, ATCC9341; lowest concentration required to kill
Protocol: as §1

[3] = FRAP, ferric reducing antioxidative power; details: among hop components
Protocol: (§2) [table] […] The SOAC scores are not included in this figure; ORAC values used are the sum of lipophilic and hydrophilic results. For each assay category, scaling was made logarithmic so that the plot on the chart resembles the associated rating. […] The larger the spatial area, the higher the overall antioxidative capacity. […] Both hydrophilic and lipophilic oxygen radical absorbance capacity (ORAC) assays were carried out at Brunswick Laboratory (Wareham, Mass.) based on the modified ORACfl method reported by Ou et al. (2001 J. Agric. Food Chem. 49: 4619-4626, 2002 J. Agr. Food Chem. 50: 3122-3128). Trolox, a water-soluble vitamin E analog, was used as the calibration standard. The data are expressed as mmole of Trolox equivalents per gram (mmol TE/g). […] Hydroxyl radical ORAC (HOR-AC) is expressed as mmole caffeic acid equivalent per gram (mmol CAE/g). […] The peroxyl nitrite ORAC (NORAC) result is expressed as mmol TE/g. Alpha-tocopherol (vitamin E) was used as the calibration standard, and the singlet oxygen absorbance capacity (SOAC) result is expressed as mmole a-tocopherol equivalent (mmol VtE) per gram (Aubry et al. 1989 J. Org. Chem. 54: 726-728). […] Radical-scavenging activity was measured by the change in absorbance at 517 nm with the DPPH result expressed as mmol TE/g. […] The FRAP result is expressed as mmol TE/g (Ou et al. J. Agric. Food Chem. 49: 4619-4626). […]

[4] = ORAC-Total (ORAClipo + ORAChydro); details: among hop components
Protocol: In the present work, the ORAC value is expressed as the sum of values of both the water-soluble and fat-soluble parts. Green tea catechins (Polyphenon 60) were used as the control with the highest ORAC value among edible plants. Vitamin C and vitamin E were used as controls for water- and fat-soluble molecules, respectively. Both hydrophilic and lipophilic oxygen radical absorbance capacity (ORAC) assays were carried out at Brunswick Laboratory (Wareham, Mass.) based on the modified ORACfl method reported by Ou et al. (2001 J. Agric. Food Chem. 49: 4619-4626, 2002 J. Agr. Food Chem. 50: 3122-3128). Trolox, a water-soluble vitamin E analog, was used as the calibration standard. The data are expressed as mmole of Trolox equivalents per gram (mmol TE/g). […] Hydroxyl radical ORAC (HOR-AC) is expressed as mmole caffeic acid equivalent per gram (mmol CAE/g). […] The peroxyl nitrite ORAC (NORAC) result is expressed as mmol TE/g. Alpha-tocopherol (vitamin E) was used as the calibration standard, and the singlet oxygen absorbance capacity (SOAC) result is expressed as mmole a-tocopherol equivalent (mmol VtE) per gram (Aubry et al. 1989 J. Org. Chem. 54: 726-728). […] Radical-scavenging activity was measured by the change in absorbance at 517 nm with the DPPH result expressed as mmol TE/g. […] The FRAP result is expressed as mmol TE/g (Ou et al. J. Agric. Food Chem. 49: 4619-4626). […]

SOD antioxidant assay = details: among hop components
[5] = HORAC, hydroxyl radical ORAC; details: among hop components
Protocol: as §2

COc1cc(O)c(CC=C(C)C)c(O)c1C(=O)/C=C/c1ccc(O)cc1 [Xanthohumol (7), Xanthohumol]
MBC (P. acnes (ATCC 6919)): 3 µg/mL (≈ 8.46 µM)
MBC [1]: 10 µg/mL (≈ 28.2 µM)
MBC (S. aureus (ATCC 6538P)): 100 µg/mL (≈ 282 µM)
MBC (S. pyogenes (ATCC 14289)): 3 µg/mL (≈ 8.46 µM)
MBC [2]: 10 µg/mL (≈ 28.2 µM)
rank of quenching activity against ferric ion (FRAP), FIG. 2 [3]: highest quenching activity
rank of quenching activity against peroxyl radical (ORAC-total), FIG. 2 [4]: highest quenching activity
rank of quenching activity against superoxide (SOD), FIG. 2 (SOD antioxidant assay): highest quenching activity
rank of quenching activity against hydroxyl radical (HORAC), FIG. 2 [5]: highest quenching activity

— patent US8142821B2, “Xanthohumol-enriched hop extract” (Flazan GmbH & Co. KG, priority 2007, dated 2012)
